The values below come from ChEMBL document CHEMBL1649061, “Synthesis and pharmacological evaluation of N-(3-(1H-indol-4-yl)-5-(2-methoxyisonicotinoyl)phenyl)methanesulfonamide (LP-261), a potent antimitotic agent” (J Med Chem, 2011).

Activity calls are given as the source filed them. No cut-off for these calls is given here.

Data set [1] is described as follows: Cytotoxicity against human NCI-ADR-RES expressing MDR1 cells after 48 to 72 hrs by […] assay. Format: functional, cell-based.
In another data set the test system is BXPC-3. Description: Cell cycle arrest in human BxPC3 cells assessed as accumulation at G2/M phase after 24 hrs using propidium iodide staining by FACS analysis. The class given is functional, cell-based. Particulars: BXPC-3, 24 h. (In general: Flow cytometry measures light scatter and fluorescence of single cells or particles in a stream.)
The next data set deals with U-266. Description: Cell cycle arrest in human U266 cells assessed as accumulation at G2/M phase after 24 hrs using propidium iodide staining by FACS analysis. As to conditions: U-266, 24 h. The class given is functional, cell-based.
Data set [2] concerns SW-620. Kind of data set: Cytotoxicity against human SW620 cells after 48 to 72 hrs by […] assay. Format: functional, cell-based.
The test system of the next data set is MCF7. Kind of data set: Cell cycle arrest in human MCF7 cells assessed as accumulation at G2/M phase after 24 hrs using propidium iodide staining by FACS analysis. Particulars: MCF7, 24 h. The class given is functional, cell-based.
For a further data set, the system named is PC-3. Description: Cell cycle arrest in human PC3 cells assessed as accumulation at G2/M phase after 24 hrs using propidium iodide staining by FACS analysis. Format: functional, cell-based. Particulars: PC-3, 24 h.
The subject of a further data set is NCI-H23. Kind of data set: Cell cycle arrest in human NCI-H23 cells assessed as accumulation at G2/M phase after 24 hrs using propidium iodide staining by FACS analysis. The class given is functional, cell-based. As to conditions: NCI-H23, 24 h.
The test system of a further data set is A2780. Description: Cytotoxicity against human A2780 cells after 48 to 72 hrs by […] assay. The class given is functional, cell-based.
For a further data set, the system named is HeLa. Description: Cytotoxicity against human HeLa cells after 48 to 72 hrs by […] assay. The class given is functional, cell-based.
Data set [3] is described as follows: Inhibition of tubulin polymerization after 60 mins.
Data set [4] in a line: Displacement of [3H]colchicine from tubulin at 30 uM. (In general: In a radioligand displacement assay an active substance lowers the binding of a labelled ligand.)
Another data set deals with Jurkat. Description: Cell cycle arrest in human Jurkat cells assessed as accumulation at G2/M phase after 24 hrs using propidium iodide staining by FACS analysis.
The test system of a further data set is NCI-H522. Kind of data set: Cell cycle arrest in human NCI-H522 cells assessed as accumulation at G2/M phase after 24 hrs using propidium iodide staining by FACS analysis. The class given is functional, cell-based. Particulars: NCI-H522, 24 h.
Data set [5] deals with SW-620. Kind of data set: Cell cycle arrest in human SW620 cells assessed as accumulation at G2/M phase after 24 hrs using propidium iodide staining by FACS analysis. The class given is functional, cell-based. Particulars: SW-620, 24 h.
Data set [6] can be described thus: Oral bioavailability in Sprague-Dawley rat at 20 mg/kg. The class given is ADME, organism-based. Particulars: in vivo.

In general, IC50 refers to the concentration at which inhibition is half-maximal. Turning to `CC(=O)Nc1cc(C(=O)c2cc(C)nc(N3CCOCC3)c2)cc(-c2cccc3[nH]ccc23)c1`, the half-inhibitory concentration (IC50) in data set [1] was 1100 nM; in the data set on BXPC-3, 70 nM; in the data set with U-266, 20 nM; with SW-620 [2] it was 450 nM; in the data set with MCF7 it was 10 nM; in the data set with PC-3, 50 nM. Besides, the concentration for half-maximal inhibition (IC50) with NCI-H23 was determined as 40 nM; in the data set with A2780 it was 350 nM; with HeLa, 490 nM.
Usually EC50 stands for the concentration that produces a half-maximal response. A word on the inhibition: it is the relative decrease from the control value, in per cent. On to `CC[C@]1(O)C[C@H]2CN(CCc3c([nH]c4ccccc34)[C@@](C(=O)OC)(c3cc4c(cc3OC)N(C=O)[C@H]3[C@@](O)(C(=O)OC)[C@H](OC(C)=O)[C@]5(CC)C=CCN6CC[C@]43[C@@H]65)C2)C1` [VINCRISTINE], for which, in [3], the concentration giving a half-maximal response (EC50) amounted to 2500 nM. Further, the inhibition result in data set [4] was “inactive”.
Consider `COc1cc2c(c(OC)c1OC)-c1ccc(OC)c(=O)cc1[C@@H](NC(C)=O)CC2` [COLCHICINE], for which the half-inhibitory concentration (IC50) in the data set with Jurkat came out at 17 nM; in the data set on BXPC-3, 16 nM; in the data set with U-266, 10 nM; in the data set on PC-3, 33 nM; in the data set on NCI-H522, 14 nM; with NCI-H23, 13 nM. In addition, the IC50 in the data set with SW-620 [5] came to 14 nM. Also, the EC50 in data set [3] was 2000 nM. The compound further came in with an inhibition in [4] of 79%.
With `CC(=O)O[C@H]1C(=O)[C@@]2(C)[C@H]([C@H](OC(=O)c3ccccc3)[C@]3(O)C[C@H](OC(=O)[C@H](O)[C@@H](NC(=O)c4ccccc4)c4ccccc4)C(C)=C1C3(C)C)[C@]1(OC(C)=O)CO[C@@H]1C[C@@H]2O` [PACLITAXEL], the half-maximal inhibitory concentration (IC50) in data set [1] is 13000 nM; with SW-620 [2], 30 nM; in the data set on A2780, 10 nM; in the data set on HeLa, 20 nM.
Turning to `COc1ccc(S(=O)(=O)Nc2cccnc2Nc2ccc(O)cc2)cc1` [ABT-751], the IC50 stood at 160 nM in the data set on Jurkat; 290 nM in data set [1]; 190 nM in the data set on SW-620 [2]; 170 nM with A2780; 270 nM in the data set on HeLa.
By bioavailability is commonly meant dose-corrected exposure relative to a reference, in per cent. Higher therefore signals much systemic uptake. `Oc1cc(Nc2cccnc2)cc(-c2cccc3[nH]ccc23)c1` registered a bioavailability in [6] of 24%.
In the case of `COC(=O)Nc1cc(C(=O)c2ccnc(N3CCOCC3)c2)cc(-c2cccc3[nH]ccc23)c1`, the IC50 was determined as 300 nM in data set [1]; 10 nM in the data set on BXPC-3; 120 nM with U-266; 250 nM with SW-620 [2]; 30 nM in the data set on MCF7; 20 nM in the data set with PC-3. Further, the 50% inhibitory concentration (IC50) amounted to 30 nM in the data set on NCI-H23, 220 nM in the data set with A2780 and 280 nM in the data set on HeLa. Besides, the EC50 in [3] stood at 4600 nM.
